Results published in patent publication US20180319810A1, “SUBSTITUTED BRIDGED UREA ANALOGS AS SIRTUIN MODULATORS” (GlaxoSmithKline Intellectual Property (No.2) Limited, priority 2014, published 2018).

Biological target: T1, SIRT1 (Homo sapiens, UniProt Q96EB6)
T1 sequence (Q96EB6 1-747): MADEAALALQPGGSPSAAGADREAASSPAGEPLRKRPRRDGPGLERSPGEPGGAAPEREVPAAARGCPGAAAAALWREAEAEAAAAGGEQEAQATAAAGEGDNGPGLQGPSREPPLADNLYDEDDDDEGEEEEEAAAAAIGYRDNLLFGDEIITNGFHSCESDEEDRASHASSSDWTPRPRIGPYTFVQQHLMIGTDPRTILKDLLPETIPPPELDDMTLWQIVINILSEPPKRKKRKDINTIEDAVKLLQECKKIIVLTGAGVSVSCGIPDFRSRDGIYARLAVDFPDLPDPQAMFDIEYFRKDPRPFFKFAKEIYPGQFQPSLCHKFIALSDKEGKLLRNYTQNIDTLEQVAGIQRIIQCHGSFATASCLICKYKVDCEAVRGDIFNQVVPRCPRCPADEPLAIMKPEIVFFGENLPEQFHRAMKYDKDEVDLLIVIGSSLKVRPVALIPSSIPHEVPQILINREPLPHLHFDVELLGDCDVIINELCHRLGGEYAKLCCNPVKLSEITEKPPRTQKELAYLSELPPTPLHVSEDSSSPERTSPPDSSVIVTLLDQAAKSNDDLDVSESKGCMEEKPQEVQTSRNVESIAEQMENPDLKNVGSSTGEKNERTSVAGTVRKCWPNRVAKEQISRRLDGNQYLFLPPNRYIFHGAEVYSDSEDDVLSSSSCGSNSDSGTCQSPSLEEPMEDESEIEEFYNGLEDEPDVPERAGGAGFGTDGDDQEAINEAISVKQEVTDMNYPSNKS
Test: Trp mass spectrometry assay of SIRT1 activation
Assay type: biochemical
Conditions: Trp peptide Ac-R-H-K-K(Ac)-W-NH2 0.5 μM, 120 μM βNAD+, 10 nM SIRT1, 25 min, 25° C.

| Compound | TRP Activity (EC1.5, concentration of compound required to increase SIRT1 activity by 50% over control) | TRP MAX RESP (percent maximum fold activation relative to control) |
| --- | --- | --- |
| O=C(Nc1ccnc(O[C@H]2CCOC2)n1)N1c2nc(-c3cccc(C(F)(F)F)c3)ncc2N2CC[C@H]1C2 [Example 25, (8S)—N-(2-(((S)-tetrahydrofuran-3-yl)oxy)pyrimidin-4-yl)-2-(3-(trifluoro-methyl)phenyl)-7,8-dihydro-5,8-methanopyrimido[4,5-b][1,4]diazepine-9(6H)-carboxamide] | B (EC1.5 1-25 μM) | A (Fold activation ≥150%) |
| Cc1nc(-c2cccc(C(F)(F)F)c2)nc2c1N1CC[C@@H](C1)N2C(=O)Nc1ccc(OC[C@H](O)CO)cn1 [Example 48, (8S)—N-(5-((R)-2,3-dihydroxypropoxy)pyridin-2-yl)-4-methyl-2-(3-(trifluoromethyl)phenyl)-7,8-dihydro-5,8-methanopyrimido[4,5-b][1,4]diazepine-9(6H)-carboxamide] | B (EC1.5 1-25 μM) | A (Fold activation ≥150%) |
| Cc1nc(C(=O)N[C@H](C)C(F)(F)F)nc2c1N1CCC[C@@H](C1)N2C(=O)Nc1ccc(OC[C@@H](O)CO)nn1 [Example 74, (9S)—N10-(6-((S)-2,3-dihydroxypropoxy)pyridazin-3-yl)-4-methyl-N2-((R)-1,1,1-trifluoropropan-2-yl)-8,9-dihydro-6H-5,9-methanopyrimido[4,5-b][1,4]diazocine-2,10(7H)-dicarboxamide] | B (EC1.5 1-25 μM) | A (Fold activation ≥150%) |
| O=C(Nc1cc(OC[C@@H](O)CO)ccn1)N1c2nc(-c3cccc(C(F)(F)F)c3)ncc2N2CC[C@H]1C2 [Example 36, (8S)—N-(4-((S)-2,3-dihydroxypropoxy)pyridin-2-yl)-2-(3-(trifluoromethyl)phenyl)-7,8-dihydro-5,8-methanopyrimido[4,5-b][1,4]diazepine-9(6H)-carboxamide] | B (EC1.5 1-25 μM) | A (Fold activation ≥150%) |
| O=C(Nc1cnnc(OC[C@@H](O)CO)c1)N1c2nc(-c3cccc(C(F)(F)F)c3)ncc2N2CC[C@H]1C2 [Example 54, (8S)—N-(6-((S)-2,3-dihydroxypropoxy)pyridazin-4-yl)-2-(3-(trifluoromethyl)phenyl)-7,8-dihydro-5,8-methanopyrimido[4,5-b][1,4]diazepine-9(6H)-carboxamide] | B (EC1.5 1-25 μM) | A (Fold activation ≥150%) |
| O=C(Nc1ccnc(O[C@@H]2CCOC2)n1)N1c2nc(-c3cccc(C(F)(F)F)c3)ncc2N2CC[C@H]1C2 [Example 14, (8S)—N-(2-(((R)-tetrahydrofuran-3-yl)oxy)pyrimidin-4-yl)-2-(3-(trifluoromethyl)phenyl)-7,8-dihydro-5,8-methanopyrimido[4,5-b][1,4]diazepine-9(6H)-carboxamide] | B (EC1.5 1-25 μM) | A (Fold activation ≥150%) |
| Cc1ncc(-c2ccnc(NC(=O)N3c4nc(C(=O)N[C@H](C)C(F)(F)F)ncc4N4CCC[C@H]3C4)c2)o1 [Example 70, (9S)—N10-(4-(2-methyloxazol-5-yl)pyridin-2-yl)-N2-((R)-1,1,1-trifluoropropan-2-yl)-8,9-dihydro-6H-5,9-methanopyrimido[4,5-b][1,4]diazocine-2,10(7H)-dicarboxamide] | A (EC1.5<1 μM) | A (Fold activation ≥150%) |

Second part, the compound after the results:

| TRP Activity (EC1.5, concentration of compound required to increase SIRT1 activity by 50% over control) | TRP MAX RESP (percent maximum fold activation relative to control) | Compound |
| --- | --- | --- |
| A (EC1.5<1 μM) | A (Fold activation ≥150%) | Cc1ccc2c(NC(=O)N3c4nc(C(=O)NC(CO)C(F)(F)F)ncc4N4CCC[C@H]3C4)n[nH]c2n1 (single isomer, unassigned) [Example 66] |
| A (EC1.5<1 μM) | A (Fold activation ≥150%) | O=C(Nc1ccc(OC[C@H](O)CO)cn1)N1c2nc(-c3cccc(C(F)(F)F)c3)ncc2N2CC[C@H]1C2 [Example 40, (8S)—N-(5-((R)-2,3-dihydroxypropoxy)pyridin-2-yl)-2-(3-(trifluoromethyl)phenyl)-7,8-dihydro-5,8-methanopyrimido[4,5-b][1,4]diazepine-9(6H)-carboxamide] |
| A (EC1.5<1 μM) | A (Fold activation ≥150%) | Cc1nc(C(=O)N[C@H](C)C(F)(F)F)nc2c1N1CCC[C@@H](C1)N2C(=O)Nc1ccc(OC[C@@H](O)CO)cn1 [Example 118, (9S)—N10-(5-((S)-2,3-dihydroxypropoxy)pyridin-2-yl)-4-methyl-N2-((R)-1,1,1-trifluoropropan-2-yl)-8,9-dihydro-6H-5,9-methanopyrimido[4,5-b][1,4]diazocine-2,10(7H)-dicarboxamide] |
| B (EC1.5 1-25 μM) | A (Fold activation ≥150%) | Cc1nc(-c2cccc(C(F)(F)F)c2)nc2c1N1CC[C@@H](C1)N2C(=O)Nc1cncc(OC[C@@H](O)CO)c1 [Example 46, (8S)—N-(5-((S)-2,3-dihydroxypropoxy)pyridin-3-yl)-4-methyl-2-(3-(trifluoromethyl)phenyl)-7,8-dihydro-5,8-methanopyrimido[4,5-b][1,4]diazepine-9(6H)-carboxamide] |
| A (EC1.5<1 μM) | A (Fold activation ≥150%) | Cc1nc(-c2cccc(C(F)(F)F)c2)nc2c1N1CCC[C@@H](C1)N2C(=O)Nc1cnc(OC[C@H](O)CO)nc1 [Example 106, (9S)—N-(2-((R)-2,3-dihydroxypropoxy)pyrimidin-5-yl)-4-methyl-2-(3-(trifluoromethyl)phenyl)-8,9-dihydro-6H-5,9-methanopyrimido[4,5-b][1,4]diazocine-10(7H)-carboxamide] |
| B (EC1.5 1-25 μM) | A (Fold activation ≥150%) | Cc1nc(-c2cccc(C(F)(F)F)c2)nc2c1N1CC[C@@H](C1)N2C(=O)Nc1nccc(OC[C@@H](O)CO)n1 [Example 47, (8S)—N-(4-((S)-2,3-dihydroxypropoxy)pyrimidin-2-yl)-4-methyl-2-(3-(trifluoromethyl)phenyl)-7,8-dihydro-5,8-methanopyrimido[4,5-b][1,4]diazepine-9(6H)-carboxamide] |
| A (EC1.5<1 μM) | A (Fold activation ≥150%) | Cc1nc(-c2cccc(C(F)(F)F)c2)nc2c1N1CCC[C@@H](C1)N2C(=O)Nc1cncc(OC[C@H](O)CO)c1 [Example 107, (9S)—N-(5-((R)-2,3-dihydroxypropoxy)pyridin-3-yl)-4-methyl-2-(3-(trifluoromethyl)phenyl)-8,9-dihydro-6H-5,9-methanopyrimido[4,5-b][1,4]diazocine-10(7H)-carboxamide] |
